{"source": "patent US6881710B1", "about": "“Personal care products based upon surfactants based upon alkyl polyglucoside quaternary compounds” (Colonial Chemical Inc., priority 2004, dated 2005)", "key": {"[1]": {"experiment": "modified Ross-Miles Foam Test", "format": "physicochemical", "details": "1% active in water, 66-67 °C, shaken ten times; time point not stated; higher is better", "description": "Sodium Lauryl sulfate is one of the most commonly used anionic surfactants. While it is a good detergent and produces large volume of foam, it is irritating and has no conditioning properties. In fact, it strips the oil from hair leaving the hair dry and fly away. Compounds of the present invention compare favorably with sodium lauryl sulfate in foam levels, and detergency, but also are non-irritating, conditioning and provide self-preserving properties. This coupled with the fact that they are derived from natural sugars, makes them the perfect single surfactant for personal care formulation. The following compounds were evaluated at 1% active in water. The higher the foam, the better.\nThe foaming properties of the compositions were also evaluated by a modified “Ross-Miles Foam Test”. This compares the foaming tendencies of different products or surfactants in water at various temperatures.\nThe test is carried out as follows: • 1. 500 ml. of water (the water should be representative of the system^1) was added to a 1000 ml. graduated cylinder having a cylinder diameter 65 mm. Then 18.0-ppm ortho phosphate is added to the cylinder as a buffer. The test is carried out at a temperature of 66° C. to 67° C. • 2. The concentration tested was 1% by weight solids. • 3. Then cylinder with contents is shaken vertically at the specified temperature ten times (the times shaken equals the number of cycles). After the tenth time, the initial foam height (t=0) is recorded in ml. Then the foam level at t=5 minutes and t=30 minutes is recorded. Results"}, "[2]": {"experiment": "salon half head study of conditioning (combability and softness) and wet comb of washed hair", "format": "in vivo", "details": "5% solution; rated by the test person, scale 1 (poor) to 5 excellent", "procedure": "Conditioning was studied. The wet comb properties of hair washed in the salon in half head studies was conducted. Evaluation of the dry hair was also evaluated. A 5% solution of the composition of the present invention was evaluated. The person having the test run was asked to evaluate the following samples for combability and softness of the hair. The scale was 1 (poor) to 5 excellent."}, "Aspergillus niger (mold)": {"system": "Aspergillus niger (mold)", "experiment": "antimicrobial zone inhibition technique", "format": "cell-based", "set-up": "key: 1=Excellent; 2=Very Good; 3=Good; 4=OK (moderate); 6=Poor; 8=No Activity", "details": "0.50% by weight in water; lower score = greater activity", "procedure": "(§1) A study was conducted to determine the antimicrobial capability of four (4) SugaQuat (alkyl polyglucoside) variations utilizing the zone inhibition technique. The test materials were evaluated for gross antimicrobial activity against a series of four (4) test organisms: Pseudomonas aeruginosa (Gram-negative bacteria); Staphylococcus aureus (Gram-positive bacteria); Candida albicans (yeast) and Aspergillus niger (mold) utilizing the zone inhibition technique.\n(§2) • Sodium Lauryl Sulfate (0.50% by weight concentration in water). • Sodium Laureth 2 Sulfate (0.50% by weight concentration in water). • Example 3 (0.50% by weight concentration in water). • Example 4 (0.50% by weight concentration in water). • Example 8 (0.50% by weight concentration in water). • Example 9 (0.50% by weight concentration in water). • Example 7 (0.50% by weight concentration in water). Activity Summary • SCORING: • 1=Excellent; 2=Very Good; 3=Good; 4=OK (moderate); 6=Poor; 8=No Activity Control Compounds"}, "Candida albicans (yeast)": {"system": "Candida albicans (yeast)", "experiment": "antimicrobial zone inhibition technique", "format": "cell-based", "set-up": "key: 1=Excellent; 2=Very Good; 3=Good; 4=OK (moderate); 6=Poor; 8=No Activity", "details": "0.50% by weight in water; lower score = greater activity", "procedure": "as §1, §2"}, "[3]": {"system": "Pseudomonas aeruginosa (Gram-negative bacteria)", "experiment": "antimicrobial zone inhibition technique", "format": "cell-based", "set-up": "key: 1=Excellent; 2=Very Good; 3=Good; 4=OK (moderate); 6=Poor; 8=No Activity", "details": "0.50% by weight in water; lower score = greater activity", "procedure": "as §1, §2"}, "[4]": {"system": "Staphylococcus aureus (Gram-positive bacteria)", "experiment": "antimicrobial zone inhibition technique", "format": "cell-based", "set-up": "key: 1=Excellent; 2=Very Good; 3=Good; 4=OK (moderate); 6=Poor; 8=No Activity", "details": "0.50% by weight in water; lower score = greater activity", "procedure": "as §1, §2"}, "[5]": {"system": "Pseudomonas aeruginosa; Staphylococcus aureus; Candida albicans; Aspergillus niger", "experiment": "antimicrobial zone inhibition technique, activity summary over four test organisms", "format": "cell-based", "details": "0.50% by weight in water; for Comments (antimicrobial activity in words): B = bacteria, Y = yeast, M = mold; for Score (sum of the four organism scores): lower score = greater activity", "procedure": "as §1, §2"}, "[6]": {"experiment": "salon half head study of detergency (cleanliness of washed hair)", "format": "in vivo", "details": "5% solution; rated by the test person, scale 1 (poor) to 5 excellent", "procedure": "Detergency was also studies. The cleanliness of hair washed in the salon in half head studies was conducted. A 5% solution of the composition of the present invention was evaluated. The person having the test run was asked to evaluate the following samples for cleanliness of the hair. The scale was 1 (poor) to 5 excellent."}}}
{"compound": "CCCCCCCCCCCCOS(=O)(=O)[O-].[Na+]", "note": "[Sodium Lauryl Sulfate]", "values": [{"measurement": "Foam Level", "setting": "[1]", "value": 900, "unit": "mL"}, {"measurement": "Conditioning", "setting": "[2]", "value": 1}, {"measurement": "Wet Comb", "setting": "[2]", "value": 1}, {"measurement": "An activity score", "setting": "Aspergillus niger (mold)", "value": 8}, {"measurement": "Ca activity score", "setting": "Candida albicans (yeast)", "value": 8}, {"measurement": "Psa activity score", "setting": "[3]", "value": 8}, {"measurement": "Sa activity score", "setting": "[4]", "value": 8}, {"measurement": "Comments (antimicrobial activity in words)", "setting": "[5]", "value": "No activity"}, {"measurement": "Score (sum of the four organism scores)", "setting": "[5]", "value": 32}, {"measurement": "Detergency Result (cleanliness of the hair)", "setting": "[6]", "value": 5}]}
{"compound": "Sodium Laureth 2 Sulfate", "values": [{"measurement": "Foam Level", "setting": "[1]", "value": 770, "unit": "mL"}, {"measurement": "Conditioning", "setting": "[2]", "value": 1}, {"measurement": "Wet Comb", "setting": "[2]", "value": 1}, {"measurement": "An activity score", "setting": "Aspergillus niger (mold)", "value": 8}, {"measurement": "Ca activity score", "setting": "Candida albicans (yeast)", "value": 8}, {"measurement": "Psa activity score", "setting": "[3]", "value": 8}, {"measurement": "Sa activity score", "setting": "[4]", "value": 8}, {"measurement": "Comments (antimicrobial activity in words)", "setting": "[5]", "value": "No activity"}, {"measurement": "Score (sum of the four organism scores)", "setting": "[5]", "value": 32}, {"measurement": "Detergency Result (cleanliness of the hair)", "setting": "[6]", "value": 4}]}
{"compound": "Sodium laureth 1-sulfate", "values": [{"measurement": "Foam Level", "setting": "[1]", "value": 750, "unit": "mL"}]}
{"compound": "Sodium laureth 3-sulfate", "values": [{"measurement": "Foam Level", "setting": "[1]", "value": 720, "unit": "mL"}]}
